Biological target: T1, MTAP activity in mouse blood (Mus musculus, UniProt Q9CQ65)
T1 construct: from tissue; host or cells: mouse blood
T1 sequence (Q9CQ65 1-283): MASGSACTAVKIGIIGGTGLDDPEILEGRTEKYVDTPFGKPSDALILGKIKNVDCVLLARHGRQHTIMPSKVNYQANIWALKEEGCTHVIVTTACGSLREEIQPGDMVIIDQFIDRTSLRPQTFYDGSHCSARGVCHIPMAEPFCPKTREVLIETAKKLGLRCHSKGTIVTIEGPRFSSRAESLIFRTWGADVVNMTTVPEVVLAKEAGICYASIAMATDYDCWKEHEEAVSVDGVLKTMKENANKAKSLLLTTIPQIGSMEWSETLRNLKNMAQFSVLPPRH
Assay: MTAP activity in blood of treated mice
Type: in vivo
Conditions: interperitoneal injection of 10 micromoles; blood sampled 30 min following injection
Method: 5′-Methylthio-Immucillin-A (5′-methylthio-ImmA) (10 micromoles) was administered to mice orally, by interperitoneal injection or by intravenous injection. Following 30 to 60 min, blood was collected or mice were sacrificed and the liver removed for tissue analysis. MTAP activity in mouse blood was measured by the conversion of radioactive MTA to radioactive 5-methylthio-α-D-ribose 1-phosphate (MTR-1P). The assay mixture contained 50 mM phosphate buffer, 1 mM dithiothreitol, 26 μM [5′-^14C]MTA with specific radioactivity of 2 μCi/μmole, 0.5% triton X-100, and the desired amount of tissue sample, in a total volume of 100 μL. Reactions were stopped at various times by the addition of perchloric acid to decrease the pH to 2.0. The protein precipitate was removed by centrifugation, and the supernatant was neutralized to near pH 7 before being placed on a charcoal column. The column was eluted with buffer near pH 7. The product MTR-1P elutes, while unreacted [5′-^14C]MTA remains on the column. The amount of MTAP activity from control and treated mice is compared.

Q: Which “inhibition of MTAP in mouse blood compared to control blood” value does the source give for `CSC[C@H]1N[C@@H](c2c[nH]c3c(N)ncnc23)C(O)[C@H]1O` (stereo partly shown) [5′-methylthio-ImmA] here?
A: The value was over 90%.
